Experimental data published in PubChem BioAssay (NCI).
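Each compound was tested at five concentrations against cells in 96-well plates for 48 hours. The concentration for 50% growth inhibition is given as GI50. At the TGI there is no net growth.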

Legend:
Test in all cases: DTP human tumour cell line panel, 48 h
A549 NSCLC = tested on: A549 NSCLC
BT-549 breast = tested on: BT-549 breast
CAKI-1 renal = tested on: CAKI-1 renal
COLO 205 colon = tested on: COLO 205 colon
HCC-2998 colon = tested on: HCC-2998 colon
HOP-92 NSCLC = tested on: HOP-92 NSCLC
NCI-H522 lung = tested on: NCI-H522 lung
SF-295 CNS = tested on: SF-295 CNS
SW-620 colon = tested on: SW-620 colon
TK-10 renal = tested on: TK-10 renal

| SMILES | GI50 (A549 NSCLC) | TGI (A549 NSCLC) | GI50 (BT-549 breast) | TGI (BT-549 breast) | GI50 (CAKI-1 renal) | TGI (CAKI-1 renal) | GI50 (COLO 205 colon) | TGI (COLO 205 colon) | GI50 (HCC-2998 colon) | TGI (HCC-2998 colon) | GI50 (HOP-92 NSCLC) | TGI (HOP-92 NSCLC) | GI50 (NCI-H522 lung) | TGI (NCI-H522 lung) | GI50 (SF-295 CNS) | TGI (SF-295 CNS) | GI50 (SW-620 colon) | TGI (SW-620 colon) | GI50 (TK-10 renal) | TGI (TK-10 renal) |
| --- | --- | --- | --- | --- | --- | --- | --- | --- | --- | --- | --- | --- | --- | --- | --- | --- | --- | --- | --- | --- |
| CC(=O)O/N=C1/C(c2c(O)[nH]c3cc(Br)ccc23)=Nc2ccccc21 | 1.48 µM | 3.47 µM | 1.28 µM | 3.5 µM | 0.275 µM | 2.04 µM | 1.57 µM | 3 µM | 1.68 µM | 3.08 µM | 1.93 µM | 5.35 µM | 1.56 µM | 3.68 µM | 2 µM | 5.47 µM | 1.82 µM | 3.46 µM | 2.09 µM | 5.32 µM |
| C=CCC(N[C@H](CO)c1ccccc1)c1cn(C(=O)OCC)c2ccccc12 (stereo not given in full) | 13.1 µM | 27.6 µM | 19.8 µM | 39 µM | 12.4 µM | 26.9 µM | 19.5 µM | 65.6 µM | 15.8 µM | 29.6 µM | 18 µM | 35.7 µM | 15.2 µM | 32.1 µM | 15.4 µM | 29.3 µM | 25.6 µM | 52.2 µM | 16.5 µM | 34 µM |
| COc1ccc2c(c1)C(c1ccccc1Cl)=Nc1c(n[nH]c1C)N2 | 12.5 µM | > 25 µM | > 21.2 µM | > 25 µM | > 8.82 µM | > 25 µM | 11.7 µM | > 25 µM | > 25 µM | > 25 µM | > 25 µM | > 25 µM | > 20 µM | > 25 µM | > 25 µM | > 25 µM | > 16.1 µM | > 25 µM | > 25 µM | > 25 µM |
| Cc1cc(C)c(O)c(CN(C)Cc2cc(Cl)cc(Cl)c2O)c1 | 5.41 µM | 28.5 µM | 11.8 µM | 27.3 µM | 2.77 µM | 12.2 µM | 4.99 µM | 15.3 µM | 4.8 µM | 17.4 µM | 3.07 µM | 13.3 µM | 2.22 µM | 6.14 µM | 2.18 µM | 6.18 µM | 3.71 µM | 14.3 µM | 4.95 µM | 25.6 µM |
